Structures are written as SMILES.

Data set [1] in a line: in vitro. Conditions: human. The data set is classed as cell-based. The method, then: (§1) Black 384-well clear-bottom microtiter plates (Corning, Amsterdam, The Netherlands) were filled via acoustic drop ejection using the echo liquid handler (Labcyte, Sunnyvale, California). 200 nL of compound stock solutions (100% DMSO) were transferred to the assay plates. 9 serial 4-fold dilutions of compound were made, creating per quadrant the same compound concentration. The assay was initiated by adding 10 μL of culture medium to each well (RPMI medium without phenol red, 10% FBS-heat inactivated, 0.04% gentamycin (50 mg/mL). All addition steps are done by using a multidrop dispenser (Thermo Scientific, Erembodegem, Belgium). Next, rgRSV224 virus (MOI=1) diluted in culture medium was added to the plates. rgRSV224 virus is an engineered virus that includes an additional GFP gene (Hallak LK, Spillmann D, Collins PL, Peeples ME. Glycosaminoglycan sulfation requirements for respiratory syncytial virus infection; Journal of virology (2000), 74(22), 10508-13) and was in-licensed from the NIH (Bethesda, MD, USA). Finally, 20 μL of a HeLa cell suspension (3,000 cells/well) were plated. Medium, virus- and mock-infected controls were included in each test. The wells contain 0.05% DMSO per volume. Cells were incubated at 37° C. in a 5% CO2 atmosphere. Three days post-virus exposure, viral replication was quantified by measuring GFP expression in the cells by an in house developed MSM laser microscope (Tibotec, Beerse, Belgium). The EC50 was defined as the 50% inhibitory concentration for GFP expression. In parallel, compounds were incubated for three days in a set of white 384-well microtiter plates (Corning) and the cytotoxicity of compounds in HeLa cells was determined by measuring the ATP content of the cells using the ATPlite kit (Perkin Elmer, Zaventem, Belgium) according to the manufacturer's instructions. The CC50 was defined as the 50% concentration for cytotoxicity.

Data set [2] concerns rgRSV224 virus. Briefly: Antiviral activity: rgRSV224 (GFP) replication in HeLa cells. As to conditions: human respiratory syncytial virus, 72 h, read-out: RSV HELA EC50 (μM). The class given is cell-based. The method, then:
as §1

`C[C@@H]1c2ccccc2CCN1C(=O)c1cc(C2CC2)c2cc(-c3ccc(N4C[C@H](O)[C@@H](O)C4)cc3F)sc2n1` [Compound 4, (4-cyclopropyl-2-(4-((3 S,4S)-3,4-dihydroxypyrrolidin-1-yl)-2-fluorophenyl)thieno[2,3-b]pyridin-6-yl)((R)-1-methyl-3,4-dihydroisoquinolin-2(1H)-yl)methanone] registered a cytotoxic concentration (CC50) at 3 days in data set [1] of 14.3 µM. Further, in data set [2], the 50% effective concentration (EC50) was determined as 0.14 µM.
Take `C[C@@H]1c2ccccc2CCN1C(=O)c1cc(C2CC2)c2sc(-c3ccc(N4C[C@H](O)[C@@H](O)C4)cc3F)nc2n1` [Compound 5, (7-cyclopropyl-2-(4-((3 S,4S)-3,4-dihydroxypyrrolidin-1-yl)-2-fluorophenyl)thiazolo[4,5-b]pyridin-5-yl)((R)-1-methyl-3,4-dihydroisoquinolin-2(1H)-yl)methanone]: the cytotoxic concentration (CC50) at 3 days in data set [1] came to 33.3 µM. Moreover, the EC50 in data set [2] came to 0.73 µM.
The corresponding values for `C[C@@H]1c2ccccc2CCN1C(=O)c1cc(C2CC2)c2nc(-c3ccc(C4CC4C(=O)O)cc3F)n(C)c2n1` (stereo in doubt) [Compound 11, Trans 2-(4-{7-Cyclopropyl-3-methyl-5-[(1R)-1-methyl-1,2,3,4-tetrahydroisoquinoline-2-carbonyl]-3H-imidazo[4,5-b]pyridin-2-yl}-3-fluorophenyl)cyclopropane-1-carboxylic acid] are 76.8 µM and 0.52 µM.
Take `C[C@@H]1c2ccccc2CCN1C(=O)c1cc(C2CC2)c2nc(-c3ccc(N4CC[C@H](C(=O)O)C4)cc3F)oc2c1` [Compound 21, (3S)-1-(4-{4-Cyclopropyl-6-[(1R)-1-methyl-1,2,3,4-tetrahydroisoquinoline-2-carbonyl]-1,3-benzoxazol-2-yl}-3-fluorophenyl)pyrrolidine-3-carboxylic acid]: in data set [1], the cytotoxic concentration (CC50) at 3 days was found to be 51.5 µM. For the same molecule, the EC50 in data set [2] is 0.01 µM.
`C[C@@H]1c2ccccc2CCN1C(=O)c1cc(C2CC2)c2nc(-c3ccc(N4CC[C@H](C(N)=O)C4)cc3F)n(C)c2c1` [Compound 17, (3S)-1-(4-{4-Cyclopropyl-1-methyl-6-[(1R)-1-methyl-1,2,3,4-tetrahydroisoquinoline-2-carbonyl]-1H-1,3-benzodiazol-2-yl}-3-fluorophenyl)pyrrolidine-3-carboxamide] had a half-maximal cytotoxic concentration (CC50) at 3 days in data set [1] of 39.6 µM. For the same molecule, the EC50 in data set [2] turned out to be 0.17 µM.
The like results for `C[C@@H]1c2ccccc2CCN1C(=O)c1cc(C2CC2)c2nc(-c3ccc(NC(=O)N4CC[C@@H](O)C4)cc3F)oc2c1` [Compound 23, (R)-N-(4-(4-cyclopropyl-6-((R)-1-methyl-1,2,3,4-tetrahydroisoquinoline-2-carbonyl)benzo[d]oxazol-2-yl)-3-fluorophenyl)-3-hydroxypyrrolidine-1-carboxamide] were, in that order, 47.8 µM and 0.05 µM.
The like results for `C[C@@H]1c2ccccc2CCN1C(=O)c1cc(C2CC2)c2c(n1)nc(-c1ccc(C3C[C@H]3C(=O)O)cc1F)n2C` (relative stereo) [Compound 13, (Trans)-2-(4-(7-cyclopropyl-1-methyl-5-((R)-1-methyl-1,2,3,4-tetrahydroisoquinoline-2-carbonyl)-1H-imidazo[4,5-b]pyridin-2-yl)-3-fluorophenyl)cyclopropane-1-carboxylic acid] were, in that order, more than 100 µM and 22.4 µM.
With `C[C@@H]1c2ccccc2CCN1C(=O)c1cc(C2CC2)c2cc(-c3ccc([C@H]4C[C@@H]4C(=O)O)cc3F)[nH]c2c1` [Compound 8, (1 S,2S)-2-(4-(4-cyclopropyl-6-((R)-1-methyl-1,2,3,4-tetrahydroisoquinoline-2-carbonyl)-1H-indol-2-yl)-3-fluorophenyl)cyclopropane-1-carboxylic acid], the CC50 at 3 days in data set [1] came out at 20.9 µM. The EC50 in data set [2] came to 2.04 µM.
On to `CCc1cc(C(=O)N2CCc3ccccc3[C@H]2C)cc2cc(-c3ccc(N4C[C@H](O)[C@@H](O)C4)cc3F)oc12` [Compound 3, (2-(4-((3S,4S)-3,4-dihydroxypyrrolidin-1-yl)-2-fluorophenyl)-7-ethylbenzofuran-5-yl)((R)-1-methyl-3,4-dihydroisoquinolin-2 (1H)-yl)methanone], for which the midpoint of cytotoxicity in data set [1], the CC50 at 3 days, lay at 24.2 µM. The half-maximal effective concentration (EC50) in data set [2] was found to be 0.25 µM.
For `C[C@@H]1c2ccccc2CCN1C(=O)c1cc(C2CC2)c2cc(-c3ccc([C@H]4C[C@@H]4C(=O)O)cc3F)n(C)c2c1` [Compound 9, (1 S,2S)-2-(4-(4-cyclopropyl-1-methyl-6-((R)-1-methyl-1,2,3,4-tetrahydroisoquinoline-2-carbonyl)-1H-indol-2-yl)-3-fluorophenyl)cyclopropane-1-carboxylic acid], in data set [1], the 50% cytotoxic concentration (CC50) at 3 days came out at 31.4 µM. Also, the half-maximal effective concentration (EC50) in data set [2] came to 2.31 µM.
The corresponding values for `C[C@@H]1c2ccccc2CCN1C(=O)c1cc(C2CC2)c2nn(-c3ccc(NC(=O)N4CC[C@@H](O)C4)cc3F)cc2n1` [Compound 7, (R)-N-(4-(7-cyclopropyl-5-((R)-1-methyl-1,2,3,4-tetrahydroisoquinoline-2-carbonyl)-2H-pyrazolo[4,3-b]pyridin-2-yl)-3-fluorophenyl)-3-hydroxypyrrolidine-1-carboxamide] are 47.6 µM and 0.05 µM.
The corresponding values for `C[C@@H]1c2ccccc2CCN1C(=O)c1cc(C2CC2)c2nc(-c3ccc(N4CC[C@H](C(=O)O)C4)cc3F)n(C)c2n1` [Compound 12, Methyl (3S)-1-(4-{7-cyclopropyl-3-methyl-5-[(1R)-1-methyl-1,2,3,4-tetrahydroisoquinoline-2-carbonyl]-3H-imidazo[4,5-b]pyridin-2-yl}-3-fluorophenyl)pyrrolidine-3-carboxylic acid] are 63 µM and 0.43 µM.
Molecule `C[C@@H]1c2ccccc2CCN1C(=O)c1cc(C2CC2)c2nn(-c3ccc(NC(=O)N4CC[C@H](O)C4)cc3F)cc2c1` [Compound 20, (3S)-N-(4-{7-Cyclopropyl-5-[(1R)-1-methyl-1,2,3,4-tetrahydroisoquinoline-2-carbonyl]-2H-indazol-2-yl}-3-fluorophenyl)-3-hydroxypyrrolidine-1-carboxamide] had a CC50 at 3 days in data set [1] of 54.4 µM. Also, in data set [2], the EC50 came to 0.06 µM.
The corresponding values for `C[C@@H]1c2ccccc2CCN1C(=O)c1cc(C2CC2)c2nc(-c3ccc(C4C[C@@H]4C(N)=O)cc3F)n(C)c2c1` (relative stereo) [Compound 15, Cis-2-(4-{4-cyclopropyl-1-methyl-6-[(1R)-1-methyl-1,2,3,4-tetrahydroisoquinoline-2-carbonyl]-1H-1,3-benzodiazol-2-yl}-3-fluorophenyl)cyclopropane-1-carboxamide] are 50.4 µM and 0.69 µM.
The like results for `C[C@@H]1c2ccccc2CCN1C(=O)c1cc(C2CC2)c2nc(-c3ccc(N4C[C@H](O)[C@@H](O)C4)cc3F)oc2n1` [Compound 2, (7-cyclopropyl-2-(4-((3 S,4S)-3,4-dihydroxypyrrolidin-1-yl)-2-fluorophenyl)oxazolo[5,4-b]pyridin-5-yl)((R)-1-methyl-3,4-dihydroisoquinolin-2(1H)-yl)methanone] were, in that order, 26 µM and 0.02 µM.
The like results for `C[C@@H]1c2ccccc2CCN1C(=O)c1cc(C2CC2)c2nc(-c3ccc(NC(=O)N4CC[C@@H](O)C4)cc3F)n(C)c2c1` [Compound 18, (3R)-N-(4-{4-Cyclopropyl-1-methyl-6-[(1R)-1-methyl-1,2,3,4-tetrahydroisoquinoline-2-carbonyl]-1H-1,3-benzodiazol-2-yl}-3-fluorophenyl)-3-hydroxypyrrolidine-1-carboxamide] were, in that order, 51.6 µM and 0.14 µM.
As to `C[C@@H]1c2ccccc2CCN1C(=O)c1cc(C2CC2)c2nc(-c3ccc(N4CC[C@H](C(N)=O)C4)cc3F)oc2c1` [Compound 22, (3S)-1-(4-{4-Cyclopropyl-6-[(1R)-1-methyl-1,2,3,4-tetrahydroisoquinoline-2-carbonyl]-1,3-benzoxazol-2-yl}-3-fluorophenyl)pyrrolidine-3-carboxamide], the midpoint of cytotoxicity in data set [1], the CC50 at 3 days, lay at 54.8 µM. For the same molecule, the EC50 in data set [2] turned out to be 0.01 µM.
Consider `CCc1cc(C(=O)N2CCc3ccccc3[C@H]2C)nc2oc(-c3ccc(NC(=O)N4CC[C@@H](O)C4)cc3F)nc12` [Compound 1, (R)-N-(4-(7-ethyl-5-((R)-1-methyl-1,2,3,4-tetrahydroisoquinoline-2-carbonyl)oxazolo[5,4-b]pyridin-2-yl)-3-fluorophenyl)-3-hydroxypyrrolidine-1-carboxamide], for which the CC50 at 3 days in data set [1] is more than 25 µM. For the same molecule, the EC50 in data set [2] turned out to be 0.01 µM.
In the case of `C[C@@H]1c2ccccc2CCN1C(=O)c1cc(C2CC2)c2nc(-c3ccc(C4C[C@@H]4C(=O)O)cc3F)n(C)c2c1` (relative stereo) [Compound 14, Cis-2-(4-{4-cyclopropyl-1-methyl-6-[(1R)-1-methyl-1,2,3,4-tetrahydroisoquinoline-2-carbonyl]-1H-1,3-benzodiazol-2-yl}-3-fluorophenyl)cyclopropane-1-carboxylic acid], the half-maximal cytotoxic concentration (CC50) at 3 days in data set [1] is more than 100 µM. In addition, the EC50 in data set [2] stood at 9.05 µM.

What is called CC50 is the concentration at which the toxic effect on the cells reaches its halfway point. Higher therefore signals lower toxicity to the cells. Usually EC50 stands for the concentration giving half of the maximal effect.

The values are drawn from patent US20240158390A1, “OTHER HETEROAROMATIC COMPOUNDS HAVING ACTIVITY AGAINST RSV” (Janssen Sciences Ireland Unlimited Company, priority 2019, published 2024).
